Peptide text beside a SMILES is read from it.
System: Botrytis cinerea (B05.10)
Assay: Resazurin antifungal assay of 180 alpha-factor peptide variants towards Botrytis (Example 2)
Type: cell-based
Design: key to active against Botrytis at 15 μM / active against Botrytis at 10 μM: Peptides that showed greater than 90% inhibition were considered active against Botrytis
Conditions: for Inhibition at 10 μM: peptide 10 μM; for Inhibition at 20 μM: peptide 20 μM; for Inhibition at 50 μM: peptide 50 μM; for Inhibition at 100 μM: peptide 100 μM
Experimental: The antifungal activity of 180 alpha-factor peptide variants towards Botrytis was tested. Experimental design:
Peptides corresponding to SEQ ID NO: 1-180 were chemically synthesized using the solid-phase synthesis method and resuspended in water to a stock solution of 1 mM. The stock solution was aliquoted in cryovials and stored at −80° C.
The Botrytis cinerea culture (B05.10) isolate was acquired from the Centraalbureau voor Schimmelcultures, the Netherlands. The Botrytis fungus was propagated on 0.5% V8 agar plates (200 ml V8 Juice, 3 g CaCO3, 15 g agar, 800-ml millipore water) at 20° C., in a 12 h photoperiod for 21 days.
Fungal conidia were harvested by scraping a Botrytis plate flooded with 1 ml water with 0.1% Tween 80 solution. Conidia were then collected in a 50 ml falcon tube by passing the solution through a 40 micron filter. The solution was then centrifuged at 6000 rpm and the pellet was resuspended in 1 ml of 20% glycerol. The conidia concentration of the resulting solution was counted using a hemocytometer. The stock was diluted to […] using 20% glycerol and frozen in 100 μl aliquots in −80° C. until further use.
Peptides were tested for activity against Botrytis, using the resazurin assay. For this, fungal stock conidia was first diluted to 5000 conidia/well. 50 μl of the spore suspension was added to each well of the sterile 96-well clear bottom testing plate and mixed with 50 μl of peptide solutions to a final concentration of 100, 50, 20, 15 and 10 μM. The plate was incubated for 24 h at 20° C. After 24 h, 10 μl of resazurin dye was added to the microtiter plate and incubated again for […]. Fluorescence was measured at 570/620 nm after 4 h of incubation with resazurin.
Growth inhibition was calculated by subtracting the fluorescence values of conidia only wells from sample wells and depicted as % inhibition of fungal growth. Four technical replicates were used for all treatments.

[1] = % inhibition of fungal growth, Botrytis conidia, resazurin

CSCC[C@H](NC(=O)[C@@H]1CCCN1C(=O)[C@H](CCC(N)=O)NC(=O)CNC(=O)[C@@H]1CCCN1C(=O)[C@H](Cc1c[nH]c2ccccc12)NC(=O)[C@H](CC(C)C)NC(=O)[C@H](CCCCN)NC(=O)[C@H](CC(C)C)NC(=O)[C@H](Cc1c[nH]c2ccccc12)NC(=O)[C@H](Cc1c[nH]cn1)NC(=O)[C@@H](N)CCCCN)C(=O)N[C@@H](Cc1ccc(O)cc1)C(=O)O [compound 14] (H-KHWLKLWPGQPMY-OH; N-terminus and C-terminus assumed)
Inhibition at 10 μM [1]: <90%
Inhibition at 20 μM [1]: <90%
Inhibition at 50 μM [1]: 100%
Inhibition at 100 μM [1]: 100%

CC[C@H](C)[C@H](NC(=O)[C@H](CCCCN)NC(=O)[C@H](CC(C)C)NC(=O)[C@@H](NC(=O)[C@H](Cc1c[nH]cn1)NC(=O)[C@@H](N)Cc1c[nH]c2ccccc12)[C@@H](C)O)C(=O)N[C@@H](CCCCN)C(=O)N[C@@H](CCCCN)C(=O)NCC(=O)N[C@@H](CCC(=O)O)C(=O)N1CCC[C@H]1C(=O)N[C@@H](CCSC)C(=O)N[C@@H](Cc1ccc(O)cc1)C(=O)O [compound 15] (H-WHTLKIKKGEPMY-OH; N-terminus and C-terminus assumed)
Inhibition at 10 μM [1]: <90%
Inhibition at 20 μM [1]: <90%
Inhibition at 50 μM [1]: 100%
Inhibition at 100 μM [1]: 100%

CSCC[C@H](NC(=O)CNC(=O)[C@H](CCC(N)=O)NC(=O)CNC(=O)[C@@H](NC(=O)[C@H](CCCCN)NC(=O)[C@H](Cc1ccccc1)NC(=O)[C@@H](NC(=O)[C@H](CC(C)C)NC(=O)[C@H](Cc1c[nH]c2ccccc12)NC(=O)[C@H](Cc1c[nH]cn1)NC(=O)[C@@H](N)Cc1c[nH]c2ccccc12)[C@@H](C)O)[C@@H](C)O)C(=O)N[C@@H](Cc1ccc(O)cc1)C(=O)O [compound 16] (H-WHWLTFKTGQGMY-OH; N-terminus and C-terminus assumed)
Inhibition at 10 μM [1]: <90%
Inhibition at 20 μM [1]: <90%
Inhibition at 50 μM [1]: 100%
Inhibition at 100 μM [1]: 100%

CSCC[C@H](NC(=O)[C@@H]1CCCN1C(=O)[C@H](CCC(N)=O)NC(=O)CNC(=O)[C@@H]1CCCN1C(=O)[C@H](Cc1c[nH]c2ccccc12)NC(=O)[C@H](CC(C)C)NC(=O)[C@H](CCCCN)NC(=O)[C@H](CC(C)C)NC(=O)[C@H](Cc1ccccc1)NC(=O)[C@H](Cc1c[nH]cn1)NC(=O)[C@@H](N)CCCCN)C(=O)N[C@@H](Cc1ccc(O)cc1)C(=O)O [compound 17] (H-KHFLKLWPGQPMY-OH; N-terminus and C-terminus assumed)
Inhibition at 10 μM [1]: <90%
Inhibition at 20 μM [1]: <90%
Inhibition at 50 μM [1]: 100%
Inhibition at 100 μM [1]: 100%

CSCC[C@H](NC(=O)[C@@H]1CCCN1C(=O)[C@H](CCC(N)=O)NC(=O)CNC(=O)[C@@H]1CCCN1C(=O)[C@H](CCCCN)NC(=O)[C@H](Cc1ccccc1)NC(=O)[C@H](CCCNC(=N)N)NC(=O)[C@H](CC(C)C)NC(=O)[C@H](Cc1ccccc1)NC(=O)[C@H](Cc1c[nH]cn1)NC(=O)[C@@H](N)CCCCN)C(=O)N[C@@H](Cc1ccc(O)cc1)C(=O)O [compound 18] (H-KHFLRFKPGQPMY-OH; N-terminus and C-terminus assumed)
Inhibition at 10 μM [1]: <90%
Inhibition at 15 μM (% inhibition of fungal growth, Botrytis conidia, peptide 15 μM, resazurin): 94.03%
Inhibition at 20 μM [1]: 99.67%
Inhibition at 50 μM [1]: 100%
Inhibition at 100 μM [1]: 100%
active against Botrytis at 15 μM (peptide 15 μM): active

CC[C@H](C)[C@H](NC(=O)[C@H](Cc1c[nH]c2ccccc12)NC(=O)[C@H](CCCCN)NC(=O)[C@@H]1CCCN1)C(=O)N[C@@H](CCCNC(=N)N)C(=O)N[C@@H](CC(C)C)C(=O)N[C@@H](CCCCN)C(=O)N1CCC[C@H]1C(=O)NCC(=O)N[C@@H](CCC(N)=O)C(=O)N1CCC[C@H]1C(=O)N[C@@H](CCSC)C(=O)N[C@@H](Cc1ccc(O)cc1)C(=O)O [compound 19] (H-PKWIRLKPGQPMY-OH; N-terminus and C-terminus assumed)
Inhibition at 10 μM [1]: <90%
Inhibition at 20 μM [1]: <90%
Inhibition at 50 μM [1]: 100%
Inhibition at 100 μM [1]: 100%

Reference: US20250382332A1, “NOVEL ALPHA-FACTOR BASED PEPTIDES WITH ANTIFUNGAL ACTIVITY” (INVAIO SCIENCES, INC., priority 2024, published 2025)
